# Results as given in ChEMBL document CHEMBL1201862, “PubChem BioAssay data set” (2004).
# The source made the active and inactive calls. For most assays here, no stated cut-off is given here; in the data, actives have a measured EC50 and inactives only a lower limit.
# Tests used:
# [1] = molecular target: T1, Heat shock factor protein 1 (Mus musculus, UniProt P38532); test: decrease of HSF1-responsive luciferase luminescence – cell-based, NIH3T3, dose retest, confirmation (AID 2382); assay type: functional;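 further: NIH3T3 fibroblasts with HSF1-driven luciferase reporter stressed by proteasome inhibitor MG132; luminescence from HSF1-driven luciferase expression after 8 hours of MG132 stress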
# T1 sequence (P38532 whole entry): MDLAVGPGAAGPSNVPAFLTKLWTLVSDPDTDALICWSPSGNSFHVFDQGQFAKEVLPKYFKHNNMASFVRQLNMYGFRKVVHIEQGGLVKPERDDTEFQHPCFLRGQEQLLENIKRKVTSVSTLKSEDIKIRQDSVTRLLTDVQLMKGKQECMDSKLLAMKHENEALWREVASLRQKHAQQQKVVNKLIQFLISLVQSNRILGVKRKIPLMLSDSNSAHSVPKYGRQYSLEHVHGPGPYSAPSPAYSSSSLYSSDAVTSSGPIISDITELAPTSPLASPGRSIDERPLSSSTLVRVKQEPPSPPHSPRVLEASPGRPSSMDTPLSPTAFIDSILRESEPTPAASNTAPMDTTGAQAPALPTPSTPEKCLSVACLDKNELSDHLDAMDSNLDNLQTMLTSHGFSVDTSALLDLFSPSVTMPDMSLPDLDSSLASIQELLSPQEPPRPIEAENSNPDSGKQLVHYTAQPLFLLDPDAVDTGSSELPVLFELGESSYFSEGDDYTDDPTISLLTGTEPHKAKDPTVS
# Protein skinhead-1 = molecular target: T2, Protein skinhead-1 (Caenorhabditis elegans, UniProt P34707); assay type: functional
# T2 sequence (P34707 whole entry): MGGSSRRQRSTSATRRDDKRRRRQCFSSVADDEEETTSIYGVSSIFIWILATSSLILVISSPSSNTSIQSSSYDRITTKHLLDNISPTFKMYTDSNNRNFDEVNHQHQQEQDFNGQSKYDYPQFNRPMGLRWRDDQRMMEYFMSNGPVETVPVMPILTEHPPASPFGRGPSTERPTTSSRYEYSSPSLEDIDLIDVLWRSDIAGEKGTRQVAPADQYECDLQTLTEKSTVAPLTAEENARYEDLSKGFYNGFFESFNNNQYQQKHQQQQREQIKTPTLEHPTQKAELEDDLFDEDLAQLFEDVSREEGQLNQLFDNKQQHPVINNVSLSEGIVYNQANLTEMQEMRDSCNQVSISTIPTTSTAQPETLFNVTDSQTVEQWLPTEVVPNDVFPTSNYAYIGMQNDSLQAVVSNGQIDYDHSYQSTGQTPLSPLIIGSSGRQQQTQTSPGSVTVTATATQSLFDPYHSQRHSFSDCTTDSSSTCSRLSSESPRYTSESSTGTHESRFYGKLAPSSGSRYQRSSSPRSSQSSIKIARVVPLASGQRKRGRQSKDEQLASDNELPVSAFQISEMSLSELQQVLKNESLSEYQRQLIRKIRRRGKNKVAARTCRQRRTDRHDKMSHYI
# Streptokinase A = molecular target: T3, Streptokinase A (Streptococcus pyogenes serotype M1, UniProt P10520); test: viability-normalized secreted streptokinase activity reduction – plasminogen activation absorbance, OD405, dose response (AID 1914); assay type: functional, Streptococcus pyogenes M1 GAS;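 further: secreted streptokinase activity via plasminogen activation per viability signal from cell pellet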
# T3 sequence (P10520 whole entry): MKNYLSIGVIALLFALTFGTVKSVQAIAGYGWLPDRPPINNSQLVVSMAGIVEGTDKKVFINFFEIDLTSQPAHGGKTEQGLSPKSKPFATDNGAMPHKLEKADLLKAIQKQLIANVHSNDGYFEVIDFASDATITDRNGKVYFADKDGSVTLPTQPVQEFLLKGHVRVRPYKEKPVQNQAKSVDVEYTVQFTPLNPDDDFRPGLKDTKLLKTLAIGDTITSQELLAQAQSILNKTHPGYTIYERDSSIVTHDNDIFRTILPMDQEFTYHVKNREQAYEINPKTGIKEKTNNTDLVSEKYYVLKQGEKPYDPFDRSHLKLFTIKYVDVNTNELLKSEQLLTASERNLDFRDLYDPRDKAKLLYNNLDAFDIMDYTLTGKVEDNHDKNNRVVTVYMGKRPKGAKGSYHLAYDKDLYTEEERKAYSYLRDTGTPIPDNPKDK
# Streptococcus = test: GAS UMAA2166 growth inhibition – luminescence, BacTiterGlo, counter-screen for streptokinase expression inhibitor project, dose response (AID 1915); assay type: functional, organism-based;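 further: potency for reduction of bacterial viability or growth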
# [2] = system: Streptococcus sp. 'group A'; test: Streptococcus pyogenes SK(-)GAS viability under kanamycin – luminescence, BacTiterGlo, confirmation, counter-screen for streptokinase expression inhibitor project, dose response (AID 1900); assay type: functional, organism-based
# [3] = Luminescence Cell-Based Dose Retest to Confirm Inhibitors of Cancer Stem Cells. [Related pubchem assays (depositor defined):AID2717, AID2721]; assay type: functional; details: Homo sapiens
# [4] = viability of uninfected HEp-2 cells – cell-based, HTS, cytotoxicity control for RSV inhibitor project, dose response (AID 2410); assay type: functional; details: human respiratory syncytial virus
# H4 = test: Luminescence Cell-Based Dose Response HTS to Identify Activators of 5'UTR Stem-Loop Driven Prion Protein mRNA Translation in H4 Neuroglioblastoma Cells. [Related pubchem assays: 1829 (Project Summary), 1814 (Primary HTS)]; assay type: functional; details: Homo sapiens
# [5] = Luminescence Cell-Based Dose Response HTS to Identify Activators of Luciferase Translation or Activity in H4 […] Cells. [Related pubchem assays: 1829 (Project Summary), 1814 (Primary HTS)]; assay type: functional
# [6] = Luminescence Cell-Based Dose Confirmation HTS to Identify Activators of 5'UTR Stem-Loop Driven Alpha-Synuclein mRNA Translation in H4 Neuroglioblastoma Cells. [Related pubchem assays: 1829 (Project Summary), 1814 (Primary HTS)]; assay type: functional
# [7] = Luminescence Cell-Based Dose Response HTS to Identify Inhibitors of 5'UTR Stem-Loop Driven Prion Protein mRNA Translation in H4 Neuroglioblastoma Cells. [Related pubchem assays: 1827 (Project Summary), 1813 (Primary HTS)]; assay type: functional
# [8] = alpha-synuclein stem-loop luciferase translation blockers – H4 neuroglioma cells, luminescence, confirmation (AID 1988); assay type: functional, cell-based
# [9] = luciferase reporter signal suppression in cells – H4 neuroglioma cells, luminescence, dose response (AID 1990); assay type: functional, cell-based
# 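Wherever AC50 is given: cells exposed to compound for roughly 70 hours or longer before luminescence read.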
smiles,measurement,setting,value
Cc1ccc(C(=O)N2CCCC(Nc3ccc(F)cc3)C2)cc1C (stereo unspecified),EC50,[1],> 195 µM (not active)
COc1ccc(CC(=O)NCc2ccc3c(c2)cc(C)n3C)cc1,IC50,Protein skinhead-1,> 100 µM (inactive)
Cc1nn(-c2ccccc2)c(C)c1/C=N/n1c(S)nnc1-c1ccc(C(C)(C)C)cc1,EC50,Streptokinase A,> 150 µM (not active)
same,EC50,Streptococcus,5.35 µM (active)
same,EC50,[2],3.13 µM (active)
same,AC50,[3],5.78 µM (active)
O=C(Nc1ccc(Cl)c(Cl)c1)c1ccc2c(c1)OCO2,CC50,[4],> 50 µM (active)
Fc1ccc(-c2nnc(Cc3ccc(Cl)cc3)o2)cc1,IC50,Protein skinhead-1,20.2 µM (active)
COC(=O)c1ccc(Cn2nnc3c(O)nc(C4CCN(S(=O)(=O)c5ccc(F)cc5)CC4)nc32)cc1,EC50,[1],> 195 µM (not active)
C=CCn1c(-c2ccccc2)ccc(C#N)c1=O,IC50,Protein skinhead-1,15.8 µM (active)
O=C(Nc1ccccc1NC(=O)c1csnn1)c1csnn1,EC50,[1],> 195 µM (not active)
CC(=O)n1cc(-c2ccncc2)c2ccccc21,CC50,[4],31.5 µM (active)
COc1cccc(/C=C/c2nc(C#N)c(NCC(C)C)o2)c1,AC50,[3],2.19 µM (active)
CCC(C)(C)C(=O)Nc1ncc(S(=O)(=O)c2ccc([N+](=O)[O-])cc2)s1,IC50,Protein skinhead-1,> 100 µM (inactive)
CCOc1ccc(C(=O)OCC(=O)c2c(N)n(C)c(=O)n(C)c2=O)cc1OCC,EC50,H4,46.7 µM (inconclusive)
same,EC50,[5],> 120 µM (not active)
same,EC50,[6],> 120 µM (not active)
CCOC(=O)c1ccc(Nc2[nH]cnc3ncnc2-3)cc1,EC50,[1],> 195 µM (not active)
O=C(C[C@H]1C[C@H](C(=O)N2CCOCC2)[C@@]2(CCC3CCCC3)c3[nH]c4cc(-c5ccco5)ccc4c3CCN2C1=O)NCc1ccco1,IC50,Protein skinhead-1,> 100 µM (inactive)
COc1ccc(N2CCN(c3ccc(NC(=O)NN)cc3)CC2)cc1,EC50,[1],> 195 µM (not active)
Oc1nc(N/N=C/c2ccccc2Br)nnc1-c1ccccc1,CC50,[4],30.9 µM (active)
COc1ccccc1-c1cc(C(=O)N/N=C/c2ccc(C)s2)c2ccccc2n1,CC50,[4],32.2 µM (active)
CC(C)c1nnc(NC(=O)C2CCN(C(=O)c3ccco3)CC2)s1,EC50,[1],> 195 µM (not active)
CCOC(=O)c1c(C)n(C)c2ccc(OCC(O)Cn3nc(C)c(Br)c3C)cc12 (stereo unspecified),EC50,Streptokinase A,> 150 µM (not active)
same,EC50,Streptococcus,38.1 µM (active)
same,EC50,[2],15.6 µM (active)
same,CC50,[4],15.6 µM (active)
COc1ccc(O)c(/C=N/Nc2nc(C)cc(-c3ccccc3)n2)c1,CC50,[4],18.1 µM (active)
CCCn1c2ccccc2c2nnc(SCC(=O)Nc3c(C)n(C)n(-c4ccccc4)c3=O)nc21,EC50,[7],> 120 µM (not active)
same,EC50,[8],> 120 µM (not active)
same,EC50,[9],> 120 µM (not active)
